The values that follow come from ChEMBL document CHEMBL5360655, “Design, Synthesis, and Biological Evaluation of Novel P2X7 Receptor Antagonists for the Treatment of Septic Acute Kidney Injury” (J Med Chem, 2023).

The test system of series [1] is Mus musculus. As to the kind of experiment: Reno-protective activity against CLP-induced acute kidney injury C57BL/6J mouse model assessed as decrease in caspase-1 mRNA expression in kidney at 20 mg/kg, ip administered twice at 30 mins prior to CLP operation and 8 hrs post-CLP operation and measured at 16 hrs post-CLP operation by RT-qPCR analysis. Type of series: functional, organism-based. The settings on record: time 16.5 hrs. A general note: Real-time PCR tracks product formation cycle by cycle.

The nature of series [2]: Half life in BALB/c mouse at 10 mg/kg, iv measured for 24 hrs by LC-MS/MS analysis. Type of series: ADME, organism-based. The conditions noted are these: in vivo.
Series [3] has as its system Mus musculus. As to the kind of experiment: Reno-protective activity against CLP-induced acute kidney injury C57BL/6J mouse model assessed as decrease in NGAL mRNA expression in kidney at 20 mg/kg, ip administered twice at 30 mins prior to CLP operation and 8 hrs post-CLP operation and measured at 16 hrs post-CLP operation by RT-qPCR analysis. Type of series: functional, organism-based. The conditions noted are these: time 16.5 hrs.

Series [4] concerns Mus musculus. The series is described as follows: Reno-protective activity against CLP-induced acute kidney injury C57BL/6J mouse model assessed as decrease in Nlrp3 gene expression in kidney at 20 mg/kg, ip administered twice at 30 mins prior to CLP operation and 8 hrs post-CLP operation and measured at 16 hrs post-CLP operation by RNA sequencing analysis. Type of series: functional, organism-based. The settings on record: time 16.5 hrs.

Series [5] can be described thus: Clearance in BALB/c mouse at 10 mg/kg, ip measured for 24 hrs by LC-MS/MS analysis. The settings on record: in vivo. Type of series: ADME, organism-based.
Series [6] deals with Mus musculus. As to the kind of experiment: Reno-protective activity against CLP-induced acute kidney injury C57BL/6J mouse model assessed as decrease in Il1b gene expression in kidney at 20 mg/kg, ip administered twice at 30 mins prior to CLP operation and 8 hrs post-CLP operation and measured at 16 hrs post-CLP operation by RNA sequencing analysis. The conditions noted are these: time 16.5 hrs. It is filed as functional, organism-based.

Series [7] is described as follows: Cmax in BALB/c mouse at 10 mg/kg, ip measured for 24 hrs by LC-MS/MS analysis. It is filed as ADME, organism-based. Also on record: dose 10 mg/kg, time 24 hrs, route ip. The conditions noted are these: in vivo.
Series [8] has as its system THP-1. As to the kind of experiment: Inhibition of ATP-induced apoptosis in human THP-1 cells at […] pretreated with compound for 3 hrs in presence of LPS followed by incubation with ATP for 1 hr by PI/Hoechst staining based fluorescence microscopic analysis. Type of series: functional, cell-based. The settings on record: dose 2.5 µM, time 4.0 hrs.
Series [9] can be described thus: Tmax in BALB/c mouse at 10 mg/kg, po measured for 24 hrs by LC-MS/MS analysis. Type of series: ADME, organism-based. The conditions noted are these: in vivo.
In series [10] the target is T1, P2X purinoceptor 7 (Homo sapiens) (UniProt Q99572).
T1 sequence (whole entry): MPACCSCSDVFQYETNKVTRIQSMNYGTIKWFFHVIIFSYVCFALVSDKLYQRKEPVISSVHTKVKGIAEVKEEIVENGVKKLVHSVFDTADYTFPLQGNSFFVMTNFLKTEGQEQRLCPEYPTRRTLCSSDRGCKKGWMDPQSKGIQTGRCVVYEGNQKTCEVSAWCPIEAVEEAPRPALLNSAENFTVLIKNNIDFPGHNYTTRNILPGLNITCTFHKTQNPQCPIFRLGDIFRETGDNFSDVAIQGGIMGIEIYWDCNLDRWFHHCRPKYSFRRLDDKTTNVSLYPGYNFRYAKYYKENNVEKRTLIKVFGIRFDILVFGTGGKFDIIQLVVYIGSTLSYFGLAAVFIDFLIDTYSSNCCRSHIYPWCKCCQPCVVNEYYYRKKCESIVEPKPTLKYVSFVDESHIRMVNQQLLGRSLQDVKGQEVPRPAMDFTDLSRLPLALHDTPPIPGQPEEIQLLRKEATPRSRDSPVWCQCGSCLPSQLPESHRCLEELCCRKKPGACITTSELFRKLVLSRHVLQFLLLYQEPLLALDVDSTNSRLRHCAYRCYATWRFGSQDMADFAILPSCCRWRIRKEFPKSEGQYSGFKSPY
The series is described as follows: Antagonist activity at P2X7 receptor in human THP-1 cells assessed as inhibition of Bz-ATP-evoked channel current at 2 uM by whole-cell patch clamp analysis. It is filed as cell-based. The conditions noted are these: filed as antagonist. (In general: In patch-clamp work, channel activity is measured electrically.)

For series [11], the system named is Mus musculus. The series is described as follows: Reno-protective activity against CLP-induced acute kidney injury C57BL/6J mouse model assessed as decrease in cleaved caspase 1 (p20) protein expression in kidney at 20 mg/kg, ip administered twice at 30 mins prior to CLP operation and 8 hrs post-CLP operation and measured at 16 hrs post-CLP operation by western blot analysis. Type of series: functional, organism-based. The conditions noted are these: time 16.5 hrs. For orientation: In western blotting, separated proteins are transferred to a membrane and probed.

Series [12] concerns Mus musculus. The series is described as follows: Reno-protective activity against CLP-induced acute kidney injury C57BL/6J mouse model assessed as decrease in Casp1 gene expression in kidney at 20 mg/kg, ip administered twice at 30 mins prior to CLP operation and 8 hrs post-CLP operation and measured at 16 hrs post-CLP operation by RNA sequencing analysis. Type of series: functional, organism-based. The conditions noted are these: time 16.5 hrs.

Series [13] concerns Mus musculus. As to the kind of experiment: Reno-protective activity against LPS-induced acute kidney injury C57BL/6J mouse model assessed as decrease in BUN level at 10 mg/kg, ip administered twice at 30 mins prior to LPS challenge and 8 hrs post-LPS challenge and measured at 16 hrs post-LPS challenge. Type of series: functional, organism-based. The settings on record: time 16.5 hrs.

A short description of series [14]: Intrinsic clearance in mouse liver microsomes. It is filed as ADME, Microsome. The settings on record: read-out: CLH.
In series [15] the test system is Mus musculus. The series is described as follows: Reno-protective activity against LPS-induced acute kidney injury C57BL/6J mouse model assessed as decrease in NGAL mRNA expression in kidney at 5 to 20 mg/kg, ip administered twice at 30 mins prior to LPS challenge and 8 hrs post-LPS challenge and measured at 16 hrs post-LPS challenge by RT-qPCR analysis. Type of series: functional, organism-based. The settings on record: dose 5-20 mg/kg, time 16.5 hrs.

Series [16] has as its system Mus musculus. The series is described as follows: Reno-protective activity against LPS-induced acute kidney injury C57BL/6J mouse model assessed as decrease in BUN level at 5 to 20 mg/kg, ip administered twice at 30 mins prior to LPS challenge and 8 hrs post-LPS challenge and measured at 16 hrs post-LPS challenge. It is filed as functional, organism-based. The settings on record: dose 5-20 mg/kg, time 16.5 hrs.

For series [17], the system named is Mus musculus. The series is described as follows: Reno-protective activity against LPS-induced acute kidney injury C57BL/6J mouse model assessed as decrease in tubular injury by measuring epithelial flattening and tubular dilation at 5 to 20 mg/kg, ip administered twice at 30 mins prior to LPS challenge and 8 hrs post-LPS challenge and measured at 16 hrs post-LPS challenge by Hematoxylin-Eosin staining based analysis. It is filed as functional, organism-based. The conditions noted are these: dose 5-20 mg/kg, time 16.5 hrs.

Series [18] can be described thus: Cmax in BALB/c mouse at 10 mg/kg, po measured for 24 hrs by LC-MS/MS analysis. It is filed as ADME, organism-based. Also on record: time 24 hrs, dose 10 mg/kg, route po. The settings on record: in vivo.
The subject of series [19] is Mus musculus. As to the kind of experiment: Reno-protective activity against CLP-induced acute kidney injury C57BL/6J mouse model assessed as decrease in BUN level at 20 mg/kg, ip administered twice at 30 mins prior to CLP operation and 8 hrs post-CLP operation and measured at 16 hrs post-CLP operation. The settings on record: time 16.5 hrs. It is filed as functional, organism-based.

The nature of series [20]: Clearance in BALB/c mouse at 10 mg/kg, po measured for 24 hrs by LC-MS/MS analysis. It is filed as ADME, organism-based. The conditions noted are these: in vivo.
For series [21], the system named is THP-1. As to the kind of experiment: Inhibition of ATP-induced mitochondrial damage in human THP-1 cells at […] pretreated with compound for 3 hrs in presence of LPS followed by incubation with ATP for 1 hr by MitoTracker dye based fluorescence analysis. Type of series: functional, cell-based. The conditions noted are these: dose 2.5 µM, time 4.0 hrs.
Series [22] has as its system Mus musculus. The series is described as follows: Reno-protective activity against CLP-induced acute kidney injury C57BL/6J mouse model assessed as decrease in Tnfa-gene expression in kidney at 20 mg/kg, ip administered twice at 30 mins prior to CLP operation and 8 hrs post-CLP operation and measured at 16 hrs post-CLP operation by RNA sequencing analysis. Type of series: functional, organism-based. The settings on record: time 16.5 hrs.

Calls of active or inactive are those of the source. The rule behind the calls is not given here.

In general, half-life refers to the time in which the quantity being followed falls by half. A higher half-life goes with slow loss. As a reminder, the CL/F is clearance divided by bioavailability, as obtained after extravascular dosing. Broadly, the Cmax is the highest concentration seen after dosing. As a reminder, the inhibition is how much of the control response was suppressed. By Tmax is commonly meant the time from dosing to the highest level.

On to `CS(=O)(=O)c1ccc(-c2nc(C(=O)NCc3cn(-c4cc(Br)ccn4)nn3)cs2)cc1`, for which the outcome with Mus musculus [1], with Mus musculus [3], in the series with Mus musculus [4], in the series on Mus musculus [6], in the series with Mus musculus [11] and in the series on Mus musculus [12] was Active. The result in the series on Mus musculus [13], in the series with Mus musculus [19] and in the series on Mus musculus [22] was Active. In addition, in series [2], the half-life is 5.31 h. The results for the CL/F in series [5] and in [20] were 12.7 mL/min/kg and 25.8 mL/min/kg, respectively. Besides, the Cmax in series [7] stood at 1070 ng/mL; in series [18], 1300 ng/mL. The inhibition result in the series with THP-1 [8] and in the series with THP-1 [21] was “Active” throughout. In [9], the Tmax is 1.17 h. Also, in series [10], the inhibition was 56.1%. The CLint scaled in series [14] was less than 12 mL/min/kg. Besides, the Activity entry with Mus musculus [15], with Mus musculus [16] and in the series with Mus musculus [17] was “Dose-Dependent Effect” in each case.
